# BindingDB's records for doi:10.1016/s0960-894x(00)00033-0 (Albany Molecular Research, 2000)
# “And” between values parts separate entries of the source, which are not always exact repeats. Equal entries are not always repeated. Structures can show the parent of a compound that is named as a salt.
# Columns and labels:
# [1] = Binding affinity against Opioid receptor delta 1 of calf cortex using […] as radioligand
# [2] = Binding affinity against Opioid receptor kappa 1 of calf cortex using [3H]-U-69,593 as radioligand
# [3] = as above; remark: listed apart in the source
structure (smiles),measurement,setting,value
COCCC1CC2CN3CCc4c([nH]c5ccccc45)C(C(=O)OC)(C2)C13 (stereo not drawn) [(-)-18-Methoxycoronaridine hydrochloride],Ki,[1],3.5 µM
same,Ki,[2],4.8 µM
same,Ki,[3],5.5 µM and 5.1 µM
